Experimental findings from patent publication US20240317721A1, “PYRAZOLYL DERIVATIVES AS INHIBITORS OF THE KRAS MUTANT PROTEIN” (NOVARTIS AG, priority 2021, published 2024) are described below.

As a reminder, the pIC50 is −log10 of the IC50, conventionally taken in molar units.

The structures appear in SMILES notation. pIC50: −log10 of the molar value. Bounds are passed on as bounds.

This experiment addresses KRasG12C (M1-K169, biotinylated on the N-terminus) (Homo sapiens (Human), UniProt P01116, G12C). Kind of experiment: Covalent competition assay: scintillation proximity assay (SPA) quantifying covalent modification of KRASG12C. The format is binding. The settings on record: competition with radiolabeled covalent probe (Compound B/Compound A), 2 hours incubation, 10 nM KRasG12C. In outline: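 Scintillation proximity readout after streptavidin bead capture (30 min) of biotinylated KRasG12C(M1-K169):GDP, 10 nM final, which was covalently labelled over 2 h by 25 nM radio-probe plus 475 nM cold probe unless blocked by compound.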
Regarding `C=CC(=O)N1CC2(CC(n3nc(N4CCN(C(C)(C)CO)CC45CCC5)c(-c4c(Cl)c(C)cc5[nH]ncc45)c3C)C2)C1` (single isomer, unassigned) [Example 190b, 1-(6-(4-(5-Chloro-6-methyl-1H-indazol-4-yl)-3-(8-(1-hydroxy-2-methylpropan-2-yl)-5,8-diazaspiro[3.5]nonan-5-yl)-5-methyl-1H-pyrazol-1-yl)-2-azaspiro[3.3]heptan-2-yl)prop-2-en-1-one], the pIC50 is 6.95.

On to `C=CC(=O)N1CC2(CC(n3nc(N4CC[C@@H](CN5CC6(CCS(=O)(=O)C6)C5)CC4(C)C)c(-c4c(Cl)c(Cl)cc5[nH]ncc45)c3C)C2)C1` (single isomer, unassigned) [Example 254b], for which the pIC50 is 8.10.

`C=CC(=O)N1CC2(CC(n3nc(N4CCN(CC(C)(C)O)CC45CCC5)c(-c4c(Cl)c(C)cc5[nH]nc(N)c45)c3C)C2)C1` (single isomer, unassigned) [Example 117b, 1-(6-(4-(3-amino-5-chloro-6-methyl-1H-indazol-4-yl)-3-(8-(2-hydroxy-2-methylpropyl)-5,8-diazaspiro[3.5]nonan-5-yl)-5-methyl-1H-pyrazol-1-yl)-2-azaspiro[3.3]heptan-2-yl)prop-2-en-1-one]: the pIC50 was 5.80.

Turning to `C=CC(=O)N1CC2(CC(n3nc(N4CCN(CC5COCCOC5)C[C@]4(C)CC)c(-c4c(Cl)c(C)cc5[nH]ncc45)c3C)C2)C1` (single isomer, unassigned) [Example 186b], the pIC50 is 8.15.

As for `C=CC(=O)N1CC2(CC(n3nc(N4CCC(CN5CCOCC5)C4(C)C)c(-c4c(Cl)c(Cl)cc5[nH]ncc45)c3C)C2)C1` (single isomer, unassigned) [Example 218a, 1-(6-(4-(5,6-dichloro-1H-indazol-4-yl)-3-(2,2-dimethyl-3-(morpholinomethyl)pyrrolidin-1-yl)-5-methyl-1H-pyrazol-1-yl)-2-azaspiro[3.3]heptan-2-yl)prop-2-en-1-one], the pIC50 was 7.09.

For the molecule `C=CC(=O)N1CC2(CC(n3nc(N4CCN(C[C@H]5CCCO5)CC45CCC5)c(-c4c(Cl)c(C)cc5[nH]ncc45)c3C)C2)C1` (single isomer, unassigned) [Example 153a], the negative-log IC50 (pIC50) was less than 5.30.

Turning to `C=CC(=O)N1CC2(CC(n3nc(N4CCCCC45CN(C(C)=O)C5)c(-c4c(Cl)c(C)cc5[nH]ncc45)c3C)C2)C1` (single isomer, unassigned) [Example 66b, 1-(6-(3-(2-acetyl-2,5-diazaspiro[3.5]nonan-5-yl)-4-(5-chloro-6-methyl-1H-indazol-4-yl)-5-methyl-1H-pyrazol-1-yl)-2-azaspiro[3.3]heptan-2-yl)prop-2-en-1-one], the pIC50 is 5.66.

In the case of `C=CC(=O)N1CC2(CC(n3nc(N4CCC5(CN(C6COC6)C5)CC45CCC5)c(-c4c(Cl)c(C)cc5[nH]ncc45)c3C)C2)C1` (single isomer, unassigned) [Example 93a, 1-(6-(4-(5-chloro-6-methyl-1H-indazol-4-yl)-5-methyl-3-(2-(oxetan-3-yl)-2,10-diazadispiro[3.1.3^6.3^4]dodecan-10-yl)-1H-pyrazol-1-yl)-2-azaspiro[3.3]heptan-2-yl)prop-2-en-1-one], the pIC50 is less than 5.30.

Turning to `C=CC(=O)N1CC2(CC(n3nc(N4CCN(C5COC5)C[C@]4(C)COC)c(-c4c(Cl)c(C)cc5[nH]ncc45)c3C)C2)C1` (single isomer, unassigned) [Example 147a], the negative logarithm of the IC50 (pIC50) is 8.10.

On to `C=CC(=O)N1CC2(CC(n3nc(N4CCN(C[C@@H]5COCCO5)C[C@]4(C)CC)c(-c4c(Cl)c(C)cc5[nH]ncc45)c3C)C2)C1` (single isomer, unassigned) [Example 173a], for which the pIC50 was 5.54.

For `[2H]C1([2H])OC([2H])([2H])C([2H])([2H])N(C[C@@H]2CCN(c3nn(C4CC5(C4)CN(C(=O)C=C)C5)c(C)c3-c3c(Cl)c(Cl)cc4[nH]ncc34)C(C)(C)C2)C1([2H])[2H]` (single isomer, unassigned) [Example 283b], the negative logarithm of the IC50 (pIC50) is 8.10.

As for `C=CC(=O)N1CC2(CC(n3nc(N4C[C@H]5C[C@@H]4CN5C(C)=O)c(-c4c(Cl)c(C)cc5[nH]ncc45)c3C)C2)C1` [Example 5, 1-(6-(3-((1R,4R)-5-acetyl-2,5-diazabicyclo[2.2.1]heptan-2-yl)-4-(5-chloro-6-methyl-1H-indazol-4-yl)-5-methyl-1H-pyrazol-1-yl)-2-azaspiro[3.3]heptan-2-yl)prop-2-en-1-one], the negative-log IC50 (pIC50) is 5.66.

With `C=CC(=O)N1CC2(CC(n3nc(N4CC[C@@H](CN5CCN(C)[C@H](CO)C5)CC4(C)C)c(-c4c(Cl)c(Cl)cc5[nH]ncc45)c3C)C2)C1` (single isomer, unassigned) [Example 270a], the pIC50 is 5.62.

As for `C=CC(=O)N1CC2(CC(n3nc(N4CCc5cnn(C)c5C4)c(-c4c(Cl)c(C)cc5[nH]ncc45)c3C)C2)C1` (single isomer, unassigned) [Example 14b, 1-(6-(4-(5-chloro-6-methyl-1H-indazol-4-yl)-5-methyl-3-(1-methyl-1,4,5,7-tetrahydro-6H-pyrazolo[3,4-c]pyridin-6-yl)-1H-pyrazol-1-yl)-2-azaspiro[3.3]heptan-2-yl)prop-2-en-1-one], the pIC50 is 6.44.

Take `C=CC(=O)N1CC2(CC(n3nc(N4CCN(CC5(O)CC5)CC45CCC5)c(-c4c(Cl)c(C)cc5[nH]ncc45)c3C)C2)C1` (single isomer, unassigned) [Example 154a, 1-(6-(4-(5-chloro-6-methyl-1H-indazol-4-yl)-3-(8-((1-hydroxycyclopropyl)methyl)-5,8-diazaspiro[3.5]nonan-5-yl)-5-methyl-1H-pyrazol-1-yl)-2-azaspiro[3.3]heptan-2-yl)prop-2-en-1-one]: the pIC50 is less than 5.30.

Consider `CC[C@@]1(C)CN(C[C@@H]2COCCO2)CCN1c1nn(C2CC3(C2)CN(C(=O)/C=C/COC)C3)c(C)c1-c1c(Cl)c(C)cc2[nH]ncc12` (single isomer, unassigned) [Example 120a], for which the pIC50 is less than 5.30.

For the molecule `C=CC(=O)N1CC2(CC(n3nc(N4CC[C@@H](CN5CCN6C(=O)COC[C@@H]6C5)CC4(C)C)c(-c4c(Cl)c(Cl)cc5[nH]ncc45)c3C)C2)C1` (single isomer, unassigned) [Example 275a], the pIC50 is less than 5.30.

On to `C=CC(=O)N1CC2(CC(n3nc(N4CCN(C5COC5)CC45CCCC5)c(-c4c(Cl)c(C)cc5[nH]ncc45)c3C)C2)C1` (single isomer, unassigned) [Example 144a, 1-(6-(4-(5-chloro-6-methyl-1H-indazol-4-yl)-5-methyl-3-(9-(oxetan-3-yl)-6,9-diazaspiro[4.5]decan-6-yl)-1H-pyrazol-1-yl)-2-azaspiro[3.3]heptan-2-yl)prop-2-en-1-one], for which the pIC50 is less than 5.30.

Take `C=CC(=O)N1CC2(CC(n3nc(N4CCC(C(=O)N(C)C)CC4(C)C)c(-c4c(Cl)c(C)cc5[nH]ncc45)c3C)C2)C1` (single isomer, unassigned) [Example 98b, 1-(1-(2-acryloyl-2-azaspiro[3.3]heptan-6-yl)-4-(5-chloro-6-methyl-1H-indazol-4-yl)-5-methyl-1H-pyrazol-3-yl)-N,N,2,2-tetramethylpiperidine-4-carboxamide]: the negative-log IC50 (pIC50) is 7.72.

Take `C=CC(=O)N1CC2(CC(n3nc(N4CCC(N5CCOCC5)CC4(C)C)c(-c4c(Cl)c(C)cc5[nH]ncc45)c3C)C2)C1` (single isomer, unassigned) [Example 35a, 1-(6-(4-(5-chloro-6-methyl-1H-indazol-4-yl)-3-(2,2-dimethyl-4-morpholinopiperidin-1-yl)-5-methyl-1H-pyrazol-1-yl)-2-azaspiro[3.3]heptan-2-yl)prop-2-en-1-one]: the pIC50 is 6.60.

On to `C=CC(=O)N1CC2(CC(n3nc(N4CCC(N(C)C5COC5)CC45CCC5)c(-c4c(Cl)c(C)cc5[nH]nc(N)c45)c3C)C2)C1` (single isomer, unassigned) [Example 116b, 1-(6-(4-(3-amino-5-chloro-6-methyl-1H-indazol-4-yl)-5-methyl-3-(8-(methyl(oxetan-3-yl)amino)-5-azaspiro[3.5]nonan-5-yl)-1H-pyrazol-1-yl)-2-azaspiro[3.3]heptan-2-yl)prop-2-en-1-one], for which the pIC50 is 5.72.

As to `C=CC(=O)N1CC2(CC(n3nc(N4CCOCC4(C)C)c(-c4c(Cl)c(C)cc5[nH]ncc45)c3C)C2)C1` (single isomer, unassigned) [Example 22b, 1-(6-(4-(5-chloro-6-methyl-1H-indazol-4-yl)-3-(3,3-dimethylmorpholino)-5-methyl-1H-pyrazol-1-yl)-2-azaspiro[3.3]heptan-2-yl)prop-2-en-1-one], the pIC50 is 6.95.

In the case of `C=CC(=O)N1CC2(CC(n3nc(N4CC[C@@H](CN5CC6(CCCO6)C5)CC4(C)C)c(-c4c(Cl)c(Cl)cc5[nH]ncc45)c3C)C2)C1` (single isomer, unassigned) [Example 234b], the pIC50 was 8.05.

In the case of `C=CC(=O)N1CC2(CC(n3nc(N4CC[C@@H](CN5CC6(CCS(=O)(=O)C6)C5)CC4(C)C)c(-c4c(Cl)c(Cl)cc5[nH]ncc45)c3C)C2)C1` (single isomer, unassigned) [Example 254a], the pIC50 is 5.59.

For the molecule `C=CC(=O)N1CC2(CC(n3nc(N4CCC5C(=O)N(C)CC5C4)c(-c4c(Cl)c(C)cc5[nH]ncc45)c3C)C2)C1` (stereo not drawn) [Example 17, (3aS*,7aS*)-5-(1-(2-acryloyl-2-azaspiro[3.3]heptan-6-yl)-4-(5-chloro-6-methyl-1H-indazol-4-yl)-5-methyl-1H-pyrazol-3-yl)-2-methyloctahydro-1H-pyrrolo[3,4-c]pyridin-1-one], the pIC50 was 6.08.

As for `C=CC(=O)N1CC2(CC(n3nc(N4CC[C@@H](CN5CC6(C5)CN(C)C(=O)O6)CC4(C)C)c(-c4c(Cl)c(Cl)cc5[nH]ncc45)c3C)C2)C1` (single isomer, unassigned) [Example 284a], the pIC50 is 5.80.

For `C=CC(=O)N1CC2(CC(n3nc(N4CCN(C(C)=O)C[C@@H]4C(C)C)c(-c4c(Cl)c(C)cc5[nH]ncc45)c3C)C2)C1` (single isomer, unassigned) [Example 95a], the pIC50 was less than 5.30.
